Source: patent publication US9624758B2, “Use of oligo-quaternary compositions to increase scale inhibitor lifetime in a subterranean formation” (Ecolab USA Inc., priority 2012, dated 2017)
Like-named read-outs stand apart in the source and are kept apart here.

Tests used:
[1] = Coreflood on Bandera outcrop cores; conditions: post versus pre treatment
Protocol: Two corefloods were carried out simultaneously on two Bandera outcrop cores (1.5″ diameter by 3″ length), using a Scaled Solutions dual coreflood apparatus. The composition of these cores is set out in the table below:
Both cores were wrapped with PTFE tape and cased in heat shrink tubing prior to insertion into a Viton sleeve and mounted in a Hassler type core holder with a confining pressure of 1200 psi. Both cores were then flushed with synthetic brine at 1 mL/min for at least 2 hours and until the differential pressure was stable. Brine was flushed at 0.5 mL/min overnight.
Both cores were saturated with synthetic brine under ambient conditions in the forward direction at 1 mL/min for 10 minutes, 2 mL/min for 10 minutes, 3 mL/min for 10 minutes, and 4 mL/min for 2 hours and until the differential pressure was stable. After a stable differential pressure was achieved, the permeability to brine was measured in the forward flow by flooding at 4, 3, 2, 1 mL/min at room temperature.
Brine was then injected into both cores in the forward direction at 1 mL/min until the oven reached a temperature of 80° C. […] Following plug saturation, the permeability of each core to synthetic brine was measured in the forward flow by flooding at 4, 3, 2, and 1 mL/min at 80° C. […]
Both cores were injected with synthetic brine at 2 mL/min with effluent samples being collected. The samples were analyzed by ICP. […]

[2] = Compatibility test of scale inhibitor solutions with Product A solution in synthetic brine; type: physicochemical; design: key: C—Clear; P—Precipitate; conditions: for Clarity of Mixed Solutions 10:90: ratio 10:90; for Clarity of Mixed Solutions 50:50: ratio 50:50
From the text: Individual solutions (Solutions 1B through 1G) of 10% Product B, C, D, E, F and G, respectively, in a synthetic brine (see the table below showing the synthetic brine composition) were mixed with a 10% solution (Solution 2) of Product A in the synthetic brine. The two sets of solutions were mixed with Solution 2 (i.e., each of Solutions 1B through 1G were mixed with Solution 2) at ratios of 10:90, 30:70, 50:50, 70:30 and 90:10 to indicate that no precipitate would form at any concentration in the mixing concentration range from 10:90 to 90:10. These compatibility screening tests indicate that it is unlikely for any incompatibility to be experienced during deployment and flow back of a squeeze treatment. Any incompatibilities under ambient conditions were observed visually from solution clarity and/or precipitate. The samples were then heated to the test temperature (80° C.) and any further incompatibilities after 2 and 24 hours recorded.

Rat = test: Toxicity: LC50 Rat; conditions: in vivo
Protocol: (§1) Product A was evaluated for toxicity using various tests.

Biodegradation = test: Biodegradation
Protocol: as §1

Microtox = type: cell-based
Protocol: as §1

[3] = type: cell-based
Protocol: as §1

[4] = Toxicity: LC50 Fathead Minnow; conditions: in vivo
Protocol: as §1

Daphnia Magna = test: Toxicity: EC50 Daphnia Magna; type: in vivo
Protocol: as §1

Algae = test: Toxicity: EC50 Algae
Protocol: as §1

[5] = 10% scale inhibitor solution : 10% Product A solution in synthetic brine, ambient, then 80° C. 2 and 24 hours
[6] = 10% solutions in synthetic brine, with Product A
[7] = ratio 30:70 (second column), 10% solutions in synthetic brine, with Product A
[8] = ratio printed 30:70 (fourth column), 10% solutions in synthetic brine, with Product A

Row | Permeability Recovery [1] [%] | Compound | Clarity of Mixed Solutions 10:90 [2, 5] | Clarity of Mixed Solutions 10:90 [2, 6] | Clarity of Mixed Solutions 30:70 [2, 7] | Clarity of Mixed Solutions 50:50 [2, 6] | Clarity of Mixed Solutions 30:70 [2, 8] | LC50 Rat (Rat) | Biodegradation (Biodegradation) [%] | IC50 (Microtox; 5 min, read-out: 5-min IC50 (95% CI)) [µg/mL] | IC50 (Microtox; 0.25 h, 15 min, read-out: 15-min IC50 (95% CI)) [µg/mL] | Ames Test [3] | LC50 [4] [µg/mL] | EC50 (Daphnia Magna) [µg/mL] | EC50 (Algae) [µg/mL]
1 | 75 | O=P(O)(O)CN(CCCCCCN(CP(=O)(O)O)CP(=O)(O)O)CCCCCCN(CP(=O)(O)O)CP(=O)(O)O [Product B, BHMT phosphonate] | C | C | C | C | C | – | – | – | – | – | – | – | –
2 | – | C[N+](C)(C)CC(O)C[N+](C)(C)C.[Cl-].[Cl-] [Product A, 1,3-propandiaminium, 2-hydroxy-N,N,N,N′,N′,N′-hexamethyl-, dichloride] | – | – | – | – | – | 4,000 mg/kg | 9 | > 4000 | > 4000 | Non- | > 1000 | 186 | 1500
3 | – | DETA phosphonate [Product C] | C | C | C | C | C | – | – | – | – | – | – | – | –
